Experimental data: patent publication US20090060873A1, “Novel synthetic triterpenoids and methods of use in the treatment and prevention of multiple scleroris” (Reata Pharmaceuticals, Inc., priority 2007, published 2009)
Entries after “also recorded” stand apart in the source; their conditions may differ. Values belong to the compound of their own block, whether it stands above or below them.

Key:
heme oxygenase-1 (HO-1) = details: nanomolar concentrations; cited from earlier work
[1] = Brain levels of triterpenoids in mice fed compound in diet (LC/MS)
NF-κB = NF-κB activated by TNF, IL-1β, phorbol ester, okadaic acid, hydrogen peroxide, LPS, cigarette smoke; cited from earlier work
[2] = Tissue distribution of CDDO-Me in cynomolgus monkeys after 3 days of oral dosing; type: in vivo; details: cynomolgus monkey, about 3 h after last dose, sesame oil vehicle
Protocol: Experiments using CDDO-Me (RTA-402) were also conducted on 1 male and 1 female cynomolgus monkey (origin: Vietnam) between the ages of 2 and 3 years and weighing approximately 1.7 kg. Each received the test article (CDDO-Me in sesame oil) at 75 mg/kg/day via oral gavage administered at a volume of 5 mL/kg on Days 1, 2, and 3. Individual doses were based on the most recently obtained body weights. Blood samples were collected from the femoral artery/vein for determination of the plasma concentrations of the test article at 0.5, 1.5, 3, and 12 hours after dosing on Days 1 and 2 and at 0.5, 1.5, and 3 hours after dosing (±0.5 hour) on Day 3.
At the termination of the study (approximately three hours after dosing on Day 3), all animals were euthanized and tissues collected. Samples (approximately 1 g or greater) of the adipose tissue, brain, colon, cheek pouch (buccal mucosa), heart, ileum, kidney, liver, lung, mammary glands, ovaries, pancreas, prostate, and bone marrow from the femur (as much as possible) were collected and frozen at approximately −20° C. for analysis for the presence of the test article. All other tissues and organs were discarded.
In Table 1 nM is ng/mL×1000/505.8, where 505.8 is the molecular weight of RTA-402 using the approximation that the density of the tissue is that of water.

MOG-induced EAE [3] = test: MOG-induced rapidly progressive EAE model, treatment, clinical score; type: in vivo, mouse; details: 100 nmol (~2.8 mg/kg) IP, Q2Dx4, in 7.5% PBST, n=2/group
MOG-induced EAE [4] = test: Prophylactic treatment in MOG EAE model; type: in vivo, mouse; details: 100 nanomoles IP, pre and/or post MOG (Day -1, 1, 3, 5); FIGS. 23, 24
Protocol: FIGS. 23 & 24—Prophylactic Treatment of CDDO-Me (RTA 402) or CDDO-TFEA (RTA-404) Delays Induction of Symptoms in Model of Multiple Sclerosis.
In prophylactic studies (FIGS. 23-24) the following design was used:
Day-1: 100 nanomoles IP RTA 404 (2.9 mg/kg) or RTA 402 (2.5 mg/kg) in pre and pre/post groups
Day 1: 100 nanomoles IP RTA 404 (2.9 mg/kg) or RTA 402 (2.5 mg/kg) in post and pre/post groups
Day 3: 100 nanomoles IP RTA 404 (2.9 mg/kg) or RTA 402 (2.5 mg/kg) in post and pre/post groups
Day 5: 100 nanomoles IP RTA 404 (2.9 mg/kg) or RTA 402 (2.5 mg/kg) in post and pre/post groups

SMILES: CC1(C)CC[C@]2(C(=O)O)CC[C@]3(C)[C@H](C(=O)C=C4[C@@]5(C)C=C(C#N)C(=O)C(C)(C)[C@@H]5CC[C@]43C)[C@@H]2C1 [CDDO, 2-cyano-3,12-dioxooleane-1,9(11)-dien-28-oic acid]
expression of HO-1 (heme oxygenase-1 (HO-1)): rapidly increase the expression of the cytoprotective heme oxygenase-1 (HO-1) enzyme

SMILES: CC1(C)CC[C@]2(C(=O)n3ccnc3)CC[C@]3(C)[C@H](C(=O)C=C4[C@@]5(C)C=C(C#N)C(=O)C(C)(C)[C@@H]5CC[C@]43C)[C@@H]2C1 [CDDO-Im]
expression of HO-1 (heme oxygenase-1 (HO-1)): rapidly increase the expression of the cytoprotective heme oxygenase-1 (HO-1) enzyme

concentration in brains of mice ([1]; 800 mg/kg diet, 2 or 4 days, FIG. 2): Significant Concentrations
SMILES: CNC(=O)[C@]12CCC(C)(C)C[C@H]1C1C(=O)C=C3[C@@]4(C)C=C(C#N)C(=O)C(C)(C)[C@@H]4CC[C@@]3(C)[C@]1(C)CC2 (some centres unmarked) [CDDO-MA]

SMILES: COC(=O)[C@]12CCC(C)(C)C[C@H]1[C@H]1C(=O)C=C3[C@@]4(C)C=C(C#N)C(=O)C(C)(C)[C@@H]4CC[C@@]3(C)[C@]1(C)CC2 [CDDO-Me]
inhibition of constitutive and inducible NF-κB (NF-κB): potently inhibits both constitutive and inducible NF-κB | average tissue concentration, Breast [2]: 4,389 nM | average tissue concentration, Colon [2]: 4,467 nM | average tissue concentration, Kidney [2]: 1,603 nM | average tissue concentration, Liver [2]: 926 nM | average tissue concentration, Lung [2]: 4,992 nM | average tissue concentration, Ovary [2]: 2,115 nM | average tissue concentration, Prostate [2]: 4,446 nM | tissue concentration, Brain (range of results obtained) [2]: 215 to 447 nM | recovery of clinical score (CS 0 no symptoms, 6 quadriplegia) (MOG-induced EAE [3]): induce full recovery of mice | recovery of clinical score (CS 0 no symptoms, 6 quadriplegia) (MOG-induced EAE [3]; listed as RTA 402): induce complete recovery of symptoms after initial relapse | recovery of clinical score (CS 0 no symptoms, 6 quadriplegia) (MOG-induced EAE [3]; listed as RTA-402): Induce Full Recovery of Mice; also recorded: Treated Animals Recover | level of compound in mouse brain ([1]; fed very low levels in diet for one week (100 mg/kg diet), FIG. 1): able to reach appreciable levels in the brain; also recorded: Detectable in the Brains of Mice | delay of development of clinical scores (MOG-induced EAE [4]): modestly delayed
